pIC50, pKi: −log10 of the molar value.
How the values were obtained:
B2 bradykinin receptor = biological target: T1, B2 bradykinin receptor (Homo sapiens, UniProt P30411); assay type: cell membranes, Membrane; settings: chem-1; note: in other assays of this panel Not Active means under 50% inhibition at 10 µM
T1 sequence (P30411 whole entry): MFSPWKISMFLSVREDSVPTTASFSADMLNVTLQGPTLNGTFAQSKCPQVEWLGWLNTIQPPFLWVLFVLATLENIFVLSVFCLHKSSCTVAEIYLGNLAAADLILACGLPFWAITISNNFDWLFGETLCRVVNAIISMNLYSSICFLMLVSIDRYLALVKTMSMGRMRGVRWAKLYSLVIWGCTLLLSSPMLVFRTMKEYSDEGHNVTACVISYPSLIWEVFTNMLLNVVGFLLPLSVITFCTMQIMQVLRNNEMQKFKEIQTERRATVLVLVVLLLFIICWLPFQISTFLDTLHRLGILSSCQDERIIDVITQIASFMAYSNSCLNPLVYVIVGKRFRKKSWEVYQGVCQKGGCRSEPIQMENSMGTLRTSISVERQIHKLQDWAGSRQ

[1] = biological target: T2, Muscarinic acetylcholine receptor M4 (Homo sapiens, UniProt P08173); assay type: cell membranes, CHO-K1, Membrane; settings: for IC50: cho-k1; for all read-outs here: in other assays of this panel Not Active means under 50% inhibition at 10 µM
T2 sequence (P08173 whole entry): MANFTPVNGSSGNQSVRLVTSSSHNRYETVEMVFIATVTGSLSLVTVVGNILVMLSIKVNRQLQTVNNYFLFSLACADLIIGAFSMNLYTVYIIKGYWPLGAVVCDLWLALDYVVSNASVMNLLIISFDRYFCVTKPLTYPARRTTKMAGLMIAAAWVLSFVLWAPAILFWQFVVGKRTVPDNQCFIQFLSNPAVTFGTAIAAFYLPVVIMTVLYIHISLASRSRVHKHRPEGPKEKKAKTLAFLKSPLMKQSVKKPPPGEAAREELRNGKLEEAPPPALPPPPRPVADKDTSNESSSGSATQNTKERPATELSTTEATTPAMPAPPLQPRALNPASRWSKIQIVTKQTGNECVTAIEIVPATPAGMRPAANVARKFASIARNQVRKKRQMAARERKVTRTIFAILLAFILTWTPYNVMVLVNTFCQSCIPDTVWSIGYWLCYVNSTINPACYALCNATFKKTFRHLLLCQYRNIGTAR

[2] = biological target: T3, Nitric oxide synthase, inducible (Mus musculus, UniProt P29477); set-up: species or system Escherichia coli;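 note: inhibition of iNOS enzyme activity measured with L-arginine as substrate; in other assays of this panel Not Active means under 50% inhibition at 10 µM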
T3 sequence (P29477 whole entry): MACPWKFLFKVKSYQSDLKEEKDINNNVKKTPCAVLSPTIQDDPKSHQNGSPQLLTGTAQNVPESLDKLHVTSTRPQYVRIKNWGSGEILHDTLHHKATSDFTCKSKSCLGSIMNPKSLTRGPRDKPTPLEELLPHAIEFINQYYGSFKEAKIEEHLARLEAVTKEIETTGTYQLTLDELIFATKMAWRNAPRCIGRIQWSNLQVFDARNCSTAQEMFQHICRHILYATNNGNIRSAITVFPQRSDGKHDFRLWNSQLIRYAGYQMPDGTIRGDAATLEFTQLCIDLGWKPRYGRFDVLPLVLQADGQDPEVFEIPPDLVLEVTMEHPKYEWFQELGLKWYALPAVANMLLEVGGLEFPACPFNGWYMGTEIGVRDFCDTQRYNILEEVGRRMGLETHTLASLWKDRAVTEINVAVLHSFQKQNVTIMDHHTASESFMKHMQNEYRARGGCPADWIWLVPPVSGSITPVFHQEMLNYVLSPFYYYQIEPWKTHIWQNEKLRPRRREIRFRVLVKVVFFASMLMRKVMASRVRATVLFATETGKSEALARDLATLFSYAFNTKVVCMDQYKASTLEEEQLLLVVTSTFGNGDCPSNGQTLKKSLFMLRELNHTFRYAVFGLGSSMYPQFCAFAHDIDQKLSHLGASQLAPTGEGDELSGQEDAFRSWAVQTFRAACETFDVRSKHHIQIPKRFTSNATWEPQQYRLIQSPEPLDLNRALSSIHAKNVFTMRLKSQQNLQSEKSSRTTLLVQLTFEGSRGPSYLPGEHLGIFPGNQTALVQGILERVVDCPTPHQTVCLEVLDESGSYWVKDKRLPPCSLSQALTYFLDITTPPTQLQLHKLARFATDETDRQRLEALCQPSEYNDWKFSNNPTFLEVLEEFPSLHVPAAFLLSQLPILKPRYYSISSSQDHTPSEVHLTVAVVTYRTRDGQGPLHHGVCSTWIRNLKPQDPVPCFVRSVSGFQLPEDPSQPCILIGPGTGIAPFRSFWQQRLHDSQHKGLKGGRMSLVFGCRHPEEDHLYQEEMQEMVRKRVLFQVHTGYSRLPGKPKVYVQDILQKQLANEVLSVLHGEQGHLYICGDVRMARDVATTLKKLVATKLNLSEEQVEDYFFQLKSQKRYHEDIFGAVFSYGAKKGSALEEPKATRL

[3] = biological target: Mitogen-activated protein kinase 3 (Homo sapiens, UniProt P27361); experiment: DRUGMATRIX: Protein Serine/Threonine Kinase, ERK1 enzyme inhibition (substrate: Myelin Basic Protein); set-up: species or system Escherichia coli; settings: Not Active = under 50% inhibition at 10 µM
Melanocortin receptor 3 = Melanocortin receptor 3 (Homo sapiens, UniProt P41968); assay type: cell membranes, Membrane; settings: hek293; note: in other assays of this panel Not Active means under 50% inhibition at 10 µM
Adenosine receptor A1 = biological target: T4, Adenosine receptor A1 (Homo sapiens, UniProt P30542); assay type: cell membranes, CHO, Membrane; settings: for IC50: cho
T4 sequence (P30542 whole entry): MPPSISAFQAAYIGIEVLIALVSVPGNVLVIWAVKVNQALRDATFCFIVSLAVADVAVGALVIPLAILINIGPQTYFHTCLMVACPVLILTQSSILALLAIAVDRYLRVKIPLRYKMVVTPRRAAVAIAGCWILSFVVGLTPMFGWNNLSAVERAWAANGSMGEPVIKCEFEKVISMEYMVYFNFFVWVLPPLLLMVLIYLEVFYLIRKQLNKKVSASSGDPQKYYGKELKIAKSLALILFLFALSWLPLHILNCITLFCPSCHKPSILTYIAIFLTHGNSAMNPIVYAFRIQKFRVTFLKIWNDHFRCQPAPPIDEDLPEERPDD

Cytochrome P450 3A4 = Cytochrome P450 3A4 (Homo sapiens, UniProt P08684); settings: bti-tn-5b1-4; note: in other assays of this panel Not Active means under 50% inhibition at 10 µM
Sequence of Cytochrome P450 3A4 (P08684 whole entry): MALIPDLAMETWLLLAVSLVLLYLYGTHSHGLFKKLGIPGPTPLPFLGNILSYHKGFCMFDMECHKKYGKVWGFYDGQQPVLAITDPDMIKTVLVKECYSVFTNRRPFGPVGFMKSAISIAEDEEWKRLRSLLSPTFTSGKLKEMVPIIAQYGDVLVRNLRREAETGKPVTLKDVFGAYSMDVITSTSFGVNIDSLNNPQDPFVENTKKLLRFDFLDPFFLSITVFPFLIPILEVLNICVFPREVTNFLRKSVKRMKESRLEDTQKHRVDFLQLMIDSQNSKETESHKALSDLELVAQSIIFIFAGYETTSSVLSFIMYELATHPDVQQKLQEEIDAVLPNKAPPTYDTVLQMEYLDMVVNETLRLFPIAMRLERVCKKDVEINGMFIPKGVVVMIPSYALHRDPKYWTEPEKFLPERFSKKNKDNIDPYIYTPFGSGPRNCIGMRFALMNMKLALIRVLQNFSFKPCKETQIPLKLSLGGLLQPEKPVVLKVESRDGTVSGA

Sequence of Mitogen-activated protein kinase 3 (P27361 whole entry): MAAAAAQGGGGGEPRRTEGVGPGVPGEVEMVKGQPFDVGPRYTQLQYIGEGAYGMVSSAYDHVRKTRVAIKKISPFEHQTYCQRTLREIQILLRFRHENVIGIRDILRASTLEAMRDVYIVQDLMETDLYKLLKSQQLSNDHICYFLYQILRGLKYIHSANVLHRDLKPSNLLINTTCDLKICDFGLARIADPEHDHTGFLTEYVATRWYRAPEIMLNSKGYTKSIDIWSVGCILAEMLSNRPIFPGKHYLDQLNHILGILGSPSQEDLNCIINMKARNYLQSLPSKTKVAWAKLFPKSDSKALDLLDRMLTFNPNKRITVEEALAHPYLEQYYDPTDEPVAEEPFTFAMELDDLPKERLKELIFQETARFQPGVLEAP
Sequence of Melanocortin receptor 3 (P41968 whole entry): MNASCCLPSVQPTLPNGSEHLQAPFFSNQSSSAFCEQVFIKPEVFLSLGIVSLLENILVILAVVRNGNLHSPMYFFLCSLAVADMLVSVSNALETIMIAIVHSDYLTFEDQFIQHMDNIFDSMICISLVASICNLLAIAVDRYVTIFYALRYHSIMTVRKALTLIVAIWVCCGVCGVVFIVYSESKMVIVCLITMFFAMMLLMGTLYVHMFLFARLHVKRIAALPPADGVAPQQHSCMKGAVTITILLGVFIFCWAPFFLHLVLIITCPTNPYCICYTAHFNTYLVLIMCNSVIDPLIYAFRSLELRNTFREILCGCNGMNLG

Compound	IC50 (B2 bradykinin receptor)	pIC50 ([1]; read-out: IC50)	pKi ([1]; read-out: Ki)	IC50 [2]	IC50 [3]	IC50 (Melanocortin receptor 3)	IC50 [1]	IC50 (Adenosine receptor A1)	IC50 (Cytochrome P450 3A4)	Ki (Cytochrome P450 3A4)	pIC50 (Adenosine receptor A1; read-out: IC50)	pKi (Adenosine receptor A1; read-out: Ki)
Clc1ccc(COC(Cn2ccnc2)c2ccc(Cl)cc2Cl)c(Cl)c1 (stereo not given) [MICONAZOLE]	Not Active	5.50	6.35	Not Active	Not Active	–	–	–	–	–	–	–
CC1CCC(NC(=O)N(CCCl)N=O)CC1 (stereo not given) [SEMUSTINE]	Not Active	–	–	Not Active	Not Active	Not Active	Not Active	Not Active	Not Active	Not Active	–	–
O=C1C[C@@H]2OCC=C3CN4CC[C@]56c7ccccc7N1[C@H]5[C@H]2[C@H]3C[C@H]46 [STRYCHNINE]	Not Active	–	–	Not Active	Not Active	Not Active	Not Active	Not Active	Not Active	Not Active	–	–
C[S+]([O-])c1ccc(-c2nc(-c3ccncc3)c(-c3ccc(F)cc3)[nH]2)cc1 (stereo not given) [SB-203580]	Not Active	–	–	Not Active	–	Not Active	Not Active	–	Not Active	Not Active	5.53	5.76
CC(=N)S [THIOACETAMIDE]	Not Active	–	–	Not Active	Not Active	Not Active	Not Active	Not Active	Not Active	Not Active	–	–
COC(=O)[C@H]1[C@H]2C[C@@H]3c4[nH]c5cc(OC)ccc5c4CCN3C[C@H]2C[C@@H](OC(=O)c2cc(OC)c(OC)c(OC)c2)[C@@H]1OC [RESERPINE]	Not Active	–	–	Not Active	Not Active	Not Active	Not Active	Not Active	Not Active	Not Active	–	–
O=c1[nH]c(=O)n(C2CCCO2)cc1F (stereo not given) [TEGAFUR]	Not Active	–	–	Not Active	Not Active	Not Active	Not Active	Not Active	Not Active	Not Active	–	–
C[N+](C)(C)CCOC(=O)CCC(=O)OCC[N+](C)(C)C.[Cl-].[Cl-] [SUCCINYLCHOLINE CHLORIDE]	Not Active	–	–	Not Active	Not Active	Not Active	Not Active	Not Active	Not Active	Not Active	–	–
CCCCC(=O)N(Cc1ccc(-c2ccccc2-c2nnn[nH]2)cc1)[C@H](C(=O)O)C(C)C	Not Active	–	–	Not Active	Not Active	Not Active	Not Active	Not Active	Not Active	Not Active	–	–
CN1CCN(C2=Nc3cc(Cl)ccc3Nc3ccccc32)CC1 [CLOZAPINE]	Not Active	–	–	Not Active	Not Active	Not Active	–	Not Active	–	–	–	–
Oc1ccc2c3c1O[C@H]1[C@@H](O)CC[C@@]4(O)[C@@H](C2)N(CC2CCC2)CC[C@]314 [NALBUPHINE]	Not Active	–	–	Not Active	Not Active	Not Active	Not Active	Not Active	–	–	–	–

Reference: ChEMBL document CHEMBL1909046, “DrugMatrix in vitro pharmacology data”
